Data set [1] has as its system HMLER CD24^low cells. Nature of the data set: Localization of intracellular iron(II) with RhoNox-1. Particulars: 0.5 μM, 48 h; for lysotracker-positive vesicles colocalized with the RhoNox-1 probe: fixed cells. Format: cell-based, human. As for the experimental part:
Localization of intracellular iron(II). RhoNox-1 was synthesized according to the original procedure described in […]. Cells were washed with 1× Hank's Balanced Salt Solution (HBSS, 14025-092, Life technologies) three times, then incubated with 5 μM of RhoNox-1/HBSS for 1 h at 37° C., 5% CO2 and washed with HBSS. Co-staining was performed by adding 100 nM LysoTracker Deep Red and Hoechst 33342 (H1399, Sigma, final concentration of 1 μg/mL) in HBSS. Experiments were performed with a 60×APO TIRF oil immersion objective of Nipkow Spinning Disk confocal system.

The format of data set [2] is physicochemical. The text has this:
FIG. 1. Salinomycin and AM5 sequester iron in lysosomes and trigger ferritin degradation. a, Chemical strategy to visualize small molecules in cells. b, Fluorescence microscopy images of U2OS cells showing the subcellular localization of labeled Sal derivatives AM4, AM5, and AM9. Lysotracker Deep Red stains the lysosomes and 4′,6-diamidino-2-phenylindole (DAPI) stains nuclear DNA. Scale bar, 10 μm. Zoom corresponds to ×6. c, Live cell fluorescence microscopy images showing the subcellular localization of iron(II) using the fluorogenic reduction of RhoNox-1 (green) in HMLER CD24^low cells treated with Sal or AM5 or AM9 (0.5 μM) for 48 h. Lysotracker deep red stains the lysosomes (red) and DAPI stains nuclear DNA (blue). Scale bar, 10 μm. d, Fixed cell fluorescence microscopy images showing the subcellular localization of iron(II) using the fluorogenic reduction of RhoNox-1 (green) in HMLER CD24^low cells treated with Sal or AM5 or AM9 (0.5 μM) for 48 h. e, Quantification of lysotracker-positive vesicles colocalizing with RhoNox-1 in fixed cells was carried out by means of visual inspection. At least 75 cells were counted per condition. Data represent three independent biological replicates (n=number of lysotracker vesicles). […] Spectra were recorded in CD3CN. […] For k and I, Samples prepared in CD3OD, spectra recorded at 298 K, 5 min following sample preparation (600 MHz). […]

Data set [3] concerns U2OS, HMLER CD24^low, and iCSCL-10A2 cells. Nature of the data set: Lysosomal ROS in cells. Format: cell-based. Particulars: all cell lines.
Data set [4] deals with iCSCL-10A2 cells. Description: Annexin V/PI assay. Format: cell-based. Particulars: 0.5 μM, 72 h. As for the experimental part: (§1) Annexin V/PI assay. Cells were treated as indicated. After treatment, cell death was quantified using Annexin V-FITC/Propidium Iodide (PI) assay according to the manufacturer's protocol (FITC Annexin V Apoptosis Detection Kit II, 556570, BD Pharmingen™) and analyzed by a LSRFortessa™ flow cytometer (BD Bioscience, San Jose, Calif.). The data were processed using Cell Quest software (BD Biosciences).

Data set [5] concerns HMLER CD24^low cells. Nature of the data set: Annexin V/PI assay. Particulars: 0.5 μM, 72 h. Format: cell-based, human. As for the experimental part: as §1
Data set [6] relates to HMLER CD24^low cells. Description: Lysosomal membrane permeabilization assay. Format: cell-based, human. To be noted: 48 h. As for the experimental part:
Lysosomal membrane permeabilization assay. Lysosomal membrane permeabilization (LMP) was assessed by monitoring the release of FITC-Dextran (FD10S, 10 kDa, Sigma) from lysosomes. In brief, cells were incubated with 1 mg/mL FITC-Dextran for 2 h at 37° C. Cells were washed, chased with culture medium for 2 h and treated as indicated for 48 h or with CQ (positive control) for 3 h. Cells were then fixed with 2% formaldehyde/PBS, washed with PBS, mounted and acquired with a 60×APO TIRF oil immersion objective of Nipkow Spinning Disk confocal system.

As to `CC[C@@H](C(=O)[C@@H](C)[C@@H](O)[C@H](C)[C@@H]1O[C@@H]([C@@H](CC)C(=O)O)CC[C@@H]1C)[C@H]1O[C@]2(C=C[C@@H](O)[C@]3(CC[C@@](C)([C@H]4CC[C@](O)(CC)[C@H](C)O4)O3)O2)[C@H](C)C[C@@H]1C` [Sal, salinomycin, reference compound], in data set [1], the “staining of iron(II) (subcellular localization)” value was “restricted to the lysosomal compartment” and the “lysotracker-positive vesicles colocalized with the RhoNox-1 probe” value is on record as “approximately 80%”. In data set [2], the “stability in the presence of iron(II) over time” value is reported as “formation of byproducts”. Moreover, in data set [3], the “lysosomal ROS” value was “significant increase in lysosomal ROS”. Further, in data set [4], the “form of cell death” value is given as “ferroptosis”. In data set [5], the “form of cell death” value is given as “ferroptosis”. The “lysosomal membrane permeabilization (release of lysosomal dextran)” value in data set [6] is recorded as “induced a permeabilization of the lysosomal membrane”.
With `C#CCN[C@@H]1C=C[C@]2(O[C@H]([C@@H](CC)C(=O)[C@@H](C)[C@@H](O)[C@H](C)C3O[C@@H](C(CC)C(=O)O)CC[C@@H]3C)[C@@H](C)C[C@H]2C)O[C@@]12CC[C@@](C)([C@H]1CC[C@](O)(CC)[C@H](C)O1)O2` (some centres unmarked) [AM5, Sal-Propargylamine], in data set [1], the “staining of iron(II) (subcellular localization)” value was “restricted to the lysosomal compartment” and the “lysotracker-positive vesicles colocalized with the RhoNox-1 probe” value was “approximately 80%”. The “stability in the presence of iron(II) over time” value in data set [2] is recorded as “stable”. Besides, in data set [3], the “lysosomal ROS” value is listed as “significant increase in lysosomal ROS”. Further, the “form of cell death” value in data set [4] is “ferroptosis”. In addition, the “form of cell death” value in data set [5] is given as “ferroptosis”. The “lysosomal membrane permeabilization (release of lysosomal dextran)” value in data set [6] is listed as “induced a permeabilization of the lysosomal membrane”.

The values are drawn from US11573241B2, “Total cellular iron as a marker of cancer stem cells and uses thereof” (Institut National de la Sante et de la Recherche Medicale …, priority 2016, dated 2023).
